Series [1] has as its target T1, first bromodomain (BrD1) of human BRD4 (Homo sapiens, UniProt O60885).
T1 construct: the first bromodomain (BrD1) of human BRD4; poly-His (cleaved yes); made in house
The series is described as follows: Fluorescence anisotropy binding assay (competition with FITC-labeled MS417 probe). The note with it: FITC-MS417 probe 80 nM, PBS pH 7.4, 1 hour, 25° C., read-out: BRD4_1 IC50. An outline of the steps: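 Competitive fluorescence anisotropy in PBS pH 7.4: 80 nM FITC-MS417 probe, 0.25 to 1 μM tag-cleaved BrD1, titrated unlabeled ligand, 1 hour at 25° C. IC50 values were fitted and converted to Ki using a corrected Cheng-Prusoff equation assuming one-site competition.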

Series [2] concerns the target T2, BRD4_2 (Homo sapiens, UniProt O60885).
T2 construct: contains two tandem bromodomains (BrD1 and BrD2)
In words: Fluorescence anisotropy binding assay (competition with FITC-labeled MS417 probe), BRD4_2. The note with it: FITC-MS417 probe 80 nM, PBS pH 7.4, 1 hour, 25° C. (Polarisation of emitted light reports the rotation of a fluorescent probe.)

`CC1=C(Nc2ccc3nccnc3c2)CCCC1=O` [Example 01-60, 2-methyl-3-[(quinoxalin-6-yl)amino]cyclohex-2-en-1-one] had a melting point of 110 to 112 °C. The IC50 in series [1] fell in the range of 1000 to 10000 nM. Also, the IC50 in series [2] was 1000 to 10000 nM.
Consider `CC1=C(Nc2ccc3ncncc3c2)CCCC1=O` [Example 01-61, 2-methyl-3-[(quinazolin-6-yl)amino]cyclohex-2-en-1-one], for which the melting point lay within 215 to 216 °C. In series [1], the IC50 was over 10000 nM. In addition, the half-inhibitory concentration (IC50) in series [2] was over 10000 nM.
Molecule `CC1=C(Nc2ccc3cc[nH]c3c2)CCCC1=O` [Example 01-62, 3-[(1H-indol-6-yl)amino]-2-methylcyclohex-2-en-1-one] displayed a melting point of 227 to 230 °C. Besides, the IC50 in series [1] is under 1000 nM. This molecule also registered a half-maximal inhibitory concentration (IC50) in series [2] of 1000 to 10000 nM.
`CC1=C(Nc2ccc3[nH]c(=O)[nH]c3c2)CCCC1=O` [Example 01-63, 5-[(2-methyl-3-oxocyclohex-1-en-1-yl)amino]-2,3-dihydro-1H-1,3-benzodiazol-2-one] gave a melting point of 233 to 235 °C. Moreover, the IC50 in series [1] lay within 1000 to 10000 nM. In addition, the IC50 in series [2] is 1000 to 10000 nM.
`CC1=C(Nc2ccc3[nH]c(C(=O)O)cc3c2)CCCC1=O` [Example 01-64]: the melting point was in the range of 310 to 315 °C. For the same molecule, the 50% inhibitory concentration (IC50) in series [1] was under 1000 nM. Besides, the IC50 in series [2] is 1000 to 10000 nM.
In the same order, the values of `CC1=C(Nc2cc(N)ccc2Cl)CCCC1=O` [Example 02-10, 3-((5-amino-2-chlorophenyl)amino)-2-methylcyclohex-2-enone] are 182 to 184 °C, 1000 to 10000 nM and 1000 to 10000 nM.
Molecule `CC1=C(Nc2ccc(N)cc2Cl)CCCC1=O` [Example 02-12, 3-((4-amino-2-chlorophenyl)amino)-2-methylcyclohex-2-enone] returned a melting point of 156 to 158 °C. Also, the IC50 in series [1] fell in the range of 1000 to 10000 nM. In series [2], this molecule displayed a half-inhibitory concentration (IC50) of 1000 to 10000 nM.
In turn, `CC1=C(Nc2cccc(N)c2Cl)CCC1=O` [Example 02-13, 3-((3-amino-2-chlorophenyl)amino)-2-methylcyclopent-2-enone] registered a melting point of 223 to 225 °C. The IC50 in series [1] is 1000 to 10000 nM. Also, the 50% inhibitory concentration (IC50) in series [2] was in the range of 1000 to 10000 nM.
In turn, `CC1=C(Nc2cc(N)ccc2Cl)CCC1=O` [Example 02-15, 3-((5-amino-2-chlorophenyl)amino)-2-methylcyclopent-2-en-1-one] showed a melting point of 166 to 168 °C. In addition, the IC50 in series [1] lay within 1000 to 10000 nM. For the same molecule, the half-maximal inhibitory concentration (IC50) in series [2] was in the range of 1000 to 10000 nM.
In turn, `COc1ccc(NC(=O)c2ccc(NC3=C(C)C(=O)CC3)c(I)c2)cc1` [Example 04-104, 3-iodo-N-(4-methoxyphenyl)-4-((2-methyl-3-oxocyclopent-1-en-1-yl)amino)benzamide] had a melting point of 222 to 224 °C. Moreover, in series [1], the 50% inhibitory concentration (IC50) is under 1000 nM. In addition, the IC50 in series [2] was 1000 to 10000 nM.
In the same order, the values of `CC1=C(Nc2cc(C(=O)Nc3ccccc3C)c3ccccc3c2)CCCC1=O` [Example 04-106, 3-((2-methyl-3-oxocyclohex-1-en-1-yl)amino)-N-(o-tolyl)-1-naphthamide] are 249 to 250 °C (dec.), under 1000 nM and 1000 to 10000 nM.
In turn, `COc1ccc(C(=O)Nc2ccc(Cl)c(NC3=C(C)C(=O)CC3)c2)cc1` [Example 05-37, N-(4-chloro-3-((2-methyl-3-oxocyclopent-1-en-1-yl)amino)phenyl)-4-methoxybenzamide] had a melting point of 254 to 257 °C. In addition, the IC50 in series [1] was under 1000 nM. The molecule also gave an IC50 in series [2] of over 10000 nM.
`CC1=C(Nc2cc(NC(=O)c3ccccc3C)ccc2Cl)CCC1=O` [Example 05-38, N-(4-chloro-3-((2-methyl-3-oxocyclopent-1-en-1-yl)amino)phenyl)-2-methylbenzamide] showed a melting point of 230 to 232 °C. The IC50 in series [1] was under 1000 nM. Further, the IC50 in series [2] is under 1000 nM.

By IC50 is commonly meant the midpoint of a concentration-inhibition curve. One may read the melting point as the temperature, or range, at which the solid turns liquid.

For the origin of these results see patent US9884806B2, “Cyclic vinylogous amides as bromodomain inhibitors” (ICAHN SCHOOL OF MEDICINE AT MOUNT SINAI, priority 2013, dated 2018).
